Test results published in ChEMBL document CHEMBL1201862, “PubChem BioAssay data set” (2004).
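Grown in 96-well plates, cells were treated for 48 hours with each compound at five concentrations. Insufficient inhibition: endpoint recorded as highest concentration tested. At the GI50, growth is halved.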 Active and inactive are the calls of the source. No stated cut-off is given here; in the data, active = GI50 up to about 1.1 µM and inactive = higher.

How the values were obtained:
Experiment in all cases: DTP human tumour cell line panel, 48 h
[1] = system: 786-0
[2] = system: A549
[3] = system: ACHN
[4] = system: DU-145
[5] = system: EKVX
[6] = system: HCT-15
[7] = system: IGROV-1
[8] = system: KM12
[9] = system: MDA-MB-231
[10] = system: MOLT-4
[11] = system: Malme-3M
[12] = system: OVCAR-8
[13] = system: RXF 393
[14] = system: SK-MEL-5
[15] = system: T47D
[16] = system: UACC-257
[17] = system: SF-539
[18] = system: UO-31

Row | SMILES | GI50 [1] | GI50 [2] | GI50 [3] | GI50 [4] | GI50 [5] | GI50 [6] | GI50 [7] | GI50 [8] | GI50 [9] | GI50 [10] | GI50 [11] | GI50 [12] | GI50 [13] | GI50 [14] | GI50 [15] | GI50 [16] | GI50 [17] | GI50 [18]
1 | Cc1cc(C)c2c(-c3ccccc3)cc(=O)[nH]c2c1 | > 100 µM (inactive) | > 100 µM (inactive) | > 100 µM (inactive) | > 100 µM (inactive) | > 100 µM (inactive) | > 100 µM | > 100 µM (inactive) | > 100 µM (inactive) | > 100 µM (inactive) | > 100 µM (inactive) | > 100 µM (inactive) | > 100 µM (inactive) | > 100 µM (inactive) | > 100 µM (inactive) | > 100 µM (inactive) | > 100 µM (inactive) |  | 
2 | Cc1c(-c2ccc(O)cc2)n(CCCCCCNCCOC(=O)NCCCc2ccc(N(CCCl)CCCl)cc2)c2ccc(O)cc12 | 1.59 µM (inactive) | 1.88 µM (inactive) | 3.71 µM (inactive) | 1.83 µM (inactive) | 3.05 µM (inactive) | 1.79 µM | 2.07 µM (inactive) | 2.25 µM (inactive) | 1.83 µM (inactive) | 1.17 µM (inactive) | 1.6 µM (inactive) | 1.38 µM (inactive) |  | 1.96 µM (inactive) | 0.0552 µM (active) | 1.89 µM (inactive) | 1.64 µM (inactive) | 
3 | CC1(C)O[C@@H](CCl)C[C@@H](C#N)O1 | > 100 µM (inactive) | > 100 µM (inactive) | > 100 µM (inactive) |  | > 100 µM (inactive) |  | > 100 µM (inactive) | > 100 µM (inactive) |  | > 100 µM (inactive) | > 100 µM (inactive) | > 100 µM (inactive) | > 100 µM (inactive) | > 100 µM (inactive) |  | > 100 µM (inactive) | > 100 µM (inactive) | > 100 µM (inactive)
4 | COC(=O)/C=C(/C=C1/C(C#N)=C(N)N(c2ccc(Cl)cc2)C1(C)/C(=C/C(=O)OC)C(=O)OC)C(=O)OC (stereo unspecified) | 40.3 µM (inactive) |  | 42.7 µM (inactive) | 60.3 µM (inactive) | 46.1 µM (inactive) | 23.8 µM | 27.6 µM (inactive) |  | 8.69 µM (inactive) | 23 µM (inactive) | 51.2 µM (inactive) | 33.5 µM (inactive) |  |  | 49.1 µM (inactive) | 63.4 µM (inactive) | > 100 µM (inactive) | 64.1 µM (inactive)
5 | O=C1OC(c2ccccc2)=N/C1=C\c1ccc(Cl)cc1 | > 100 µM (inactive) | > 100 µM (inactive) | > 100 µM (inactive) | > 100 µM (inactive) | > 100 µM (inactive) | > 100 µM | > 100 µM (inactive) | > 100 µM (inactive) | > 100 µM (inactive) | > 100 µM (inactive) |  | > 100 µM (inactive) | > 100 µM (inactive) | > 100 µM (inactive) | > 100 µM (inactive) | > 100 µM (inactive) |  | > 100 µM (inactive)
6 | COc1ccccc1C1=C2C(=O)N(C)C(c3ccccc3OC)=C2C(=O)N1C | 29.5 µM (inactive) | 44.1 µM (inactive) | 68.5 µM (inactive) | > 100 µM (inactive) | > 100 µM (inactive) | > 100 µM | > 100 µM (inactive) | > 100 µM (inactive) | 48.1 µM (inactive) | > 100 µM (inactive) | 45.4 µM (inactive) | 39.2 µM (inactive) |  | > 100 µM (inactive) | 71.3 µM (inactive) | 79.8 µM (inactive) | 27.6 µM (inactive) | 50.8 µM (inactive)
7 | CCOP(=O)(Nc1ccccc1P(=O)(OCC)OCC)OCC | > 100 µM (inactive) | > 100 µM (inactive) | > 100 µM (inactive) | > 100 µM (inactive) | > 100 µM (inactive) | > 100 µM | > 100 µM (inactive) | > 100 µM (inactive) | > 100 µM (inactive) | > 100 µM (inactive) | > 100 µM (inactive) | > 100 µM (inactive) | > 100 µM (inactive) | > 100 µM (inactive) |  | > 100 µM (inactive) |  | > 100 µM (inactive)
8 | CN1CCN([C@H]2C[C@H]3[C@@H]4CC=C5C[C@@H](N6CCCC6)CC[C@]5(C)[C@H]4CC[C@]3(C)[C@H]2O)CC1 | 38.4 µM (inactive) | 37.8 µM (inactive) | > 100 µM (inactive) |  | > 100 µM (inactive) | 38.4 µM | 67.8 µM (inactive) | 56 µM (inactive) | 74.6 µM (inactive) | 23.7 µM (inactive) | 19.9 µM (inactive) | 66.8 µM (inactive) | 10.7 µM (inactive) | 18.8 µM (inactive) | > 100 µM (inactive) | 23.2 µM (inactive) | 16.2 µM (inactive) | 94.4 µM (inactive)
9 | CCSC1=N/C(=C\c2ccco2)C(Nc2ccc(C)cc2)=N1 | > 100 µM (inactive) | > 100 µM (inactive) | > 100 µM (inactive) | > 100 µM (inactive) | > 100 µM (inactive) | > 100 µM | 60.5 µM (inactive) | > 100 µM (inactive) | > 100 µM (inactive) | > 100 µM (inactive) | 52 µM (inactive) | > 100 µM (inactive) |  | > 100 µM (inactive) |  |  |  | > 100 µM (inactive)
10 | NNC(=O)C(O)C(O)C(O)CO (stereo unspecified) | > 100 µM (inactive) | > 100 µM (inactive) | > 100 µM (inactive) | > 100 µM (inactive) | > 100 µM (inactive) | > 100 µM | > 100 µM (inactive) | > 100 µM (inactive) | > 100 µM (inactive) |  | > 100 µM (inactive) | > 100 µM (inactive) | > 100 µM (inactive) | > 100 µM (inactive) | > 100 µM (inactive) | > 100 µM (inactive) |  | > 100 µM (inactive)
11 | CC(C)=CCc1cc(/C=C/C(=O)O)cc(CC=C(C)C)c1O [ARTEPILLIN] | > 100 µM (inactive) | > 100 µM (inactive) | > 100 µM (inactive) | > 100 µM (inactive) | 81.7 µM (inactive) | 76 µM | 73.5 µM (inactive) | 76 µM (inactive) | > 100 µM (inactive) | > 100 µM (inactive) |  | > 100 µM (inactive) |  | > 100 µM (inactive) |  | > 100 µM (inactive) | > 100 µM (inactive) | 87.5 µM (inactive)
12 | c1cnn(C23C4C5C6C4C2C6C53)c1 (stereo unspecified) | > 100 µM (inactive) | > 100 µM (inactive) | > 100 µM (inactive) | > 100 µM (inactive) | > 100 µM (inactive) | > 100 µM | > 100 µM (inactive) | > 100 µM (inactive) | > 100 µM (inactive) | > 100 µM (inactive) |  | > 100 µM (inactive) |  | > 100 µM (inactive) | > 100 µM (inactive) | > 100 µM (inactive) | > 100 µM (inactive) | 
13 | COc1cc(OC)cc(-n2c(N)c(-c3nc4ccccc4s3)c3ccc([N+](=O)[O-])cc3c2=O)c1 | 13.1 µM (inactive) |  | 12.5 µM (inactive) | 43.8 µM (inactive) |  | 61.1 µM |  | 56.9 µM (inactive) | 21.3 µM (inactive) |  | 32.5 µM (inactive) | 13.3 µM (inactive) |  | 45.8 µM (inactive) | 17.2 µM (inactive) | > 100 µM (inactive) | 13.4 µM (inactive) | 40.4 µM (inactive)
14 | CCCCOC(=O)C(NC(C(=O)OCCCC)c1cc(C(C)(C)C)c(O)c(C(C)(C)C)c1)c1cc(C(C)(C)C)c(O)c(C(C)(C)C)c1 (stereo unspecified) | > 100 µM (inactive) | > 100 µM (inactive) | > 100 µM (inactive) | > 100 µM (inactive) | > 100 µM (inactive) | > 100 µM | > 100 µM (inactive) | > 100 µM (inactive) | > 100 µM (inactive) | 75 µM (inactive) | > 100 µM (inactive) | > 100 µM (inactive) |  | > 100 µM (inactive) | > 100 µM (inactive) | > 100 µM (inactive) | > 100 µM (inactive) | 74.6 µM (inactive)
15 | CCOC(=O)CCC(C(=O)OCC)n1nnc2ccc(Nc3c(C)[n+]([O-])c4cc(Cl)ccc4[n+]3[O-])cc21 (stereo unspecified) | 45.4 µM (inactive) | 61.5 µM (inactive) | 34.7 µM (inactive) | 30.4 µM (inactive) | 27.7 µM (inactive) | 22.8 µM | 27.7 µM (inactive) | 22.2 µM (inactive) |  | 38.2 µM (inactive) | 17.3 µM (inactive) | 21.5 µM (inactive) | 22.4 µM (inactive) |  | 19.5 µM (inactive) | 16.3 µM (inactive) | 19.9 µM (inactive) | 34.8 µM (inactive)
16 | COc1cc(OCc2ccc3nc(-c4ccccc4)c(Cl)nc3c2)cc(OC)c1OC | 29.4 µM (inactive) | > 100 µM (inactive) | 32.3 µM (inactive) | > 100 µM (inactive) | 59.2 µM (inactive) | > 100 µM | 69.2 µM (inactive) | > 100 µM (inactive) | 39.1 µM (inactive) | > 100 µM (inactive) | 26.3 µM (inactive) | > 100 µM (inactive) |  | 20.5 µM (inactive) | 93.8 µM (inactive) | > 100 µM (inactive) | 31.2 µM (inactive) | > 100 µM (inactive)
17 | C(=C\c1cc(-c2ccc3ccccc3n2)nc2ccc3ccccc3c12)/c1ccc2ccccc2n1 | > 100 µM (inactive) | > 100 µM (inactive) | > 100 µM (inactive) | > 100 µM (inactive) | > 100 µM (inactive) | > 100 µM | > 100 µM (inactive) | > 100 µM (inactive) | > 100 µM (inactive) | > 100 µM (inactive) | > 100 µM (inactive) | > 100 µM (inactive) | > 100 µM (inactive) | > 100 µM (inactive) |  | > 100 µM (inactive) | 62.2 µM (inactive) | > 100 µM (inactive)
